# Results from patent US20210393742A1, “LONG-ACTING INTERLEUKIN-15 RECEPTOR AGONIST IN COMBINATION WITH ANOTHER PHARMACOLOGICALLY ACTIVE AGENT” (Nektar Therapeutics, priority 2018, published 2021).
# Legend:
# [1] = test system: human multiple myeloma RPMI-8226 cells; assay: ADCC of daratumumab-coated target cells by primed human NK cells (Example 12); format: cell-based; conditions: NK cells primed with 300 ng/mL overnight; daratumumab 1 μg/mL; E:T 10:1, 3 hours
# Procedure: Human NK cells were magnetically sorted from normal donor PBMCs using negative selection. NK cells were seeded in a 96-well U-bottom plate at a density of 80,000 cells/well (FIG. 15A) OR 400,000 cells/well (FIG. 15B). NK cells were stimulated with 300 ng/mL of a long-acting IL-15 receptor agonist (mono(mPEG-butanamide)IL-15) (+) or left unstimulated (−) in complete RPMI-1640 media supplemented with 10% fetal bovine serum (FBS) and 1% antibiotic/antimycotic overnight at 37° C. in 5% CO2.
# The human multiple myeloma RPMI-8226 cells (ATCC #CCL-155) were washed in PBS and stained with 0.15 μM CFSE for 5 min at 37° C. The stimulated NK cells (effector cells) and the daratumumab-coated (+1 μg/mL) CFSE-labeled tumor cells (target cells) were concurrently co-cultured in an E:T ratio of 10:1 for 3 hours at 37° C. in 5% CO2. Following incubation, cells were washed in flow staining buffer, Fc-blocked for 15 min at 4° C., and surface-stained (CD45, CD56, CD3-fluorescently conjugated antibodies). The cells were washed in PBS and incubated in 7-aminoactinomycin (7-AAD) viability stain for 30 minutes at 4° C. before acquiring for flow cytometric analysis using a Fortessa (BD). The percentage of 7-AAD+ CFSE+ target cells from total cell population is the percentage for dead tumor cells.
# Daudi B cell lymphoma = assay: NK cell counts, Daudi cell counts and granzyme B in bone marrow, Daudi xenograft model, combination with daratumumab (Example 2); format: in vivo, mice
# Procedure: SCID mice (N=6/group) were intravenously inoculated with 1×10^7 Daudi cells on Day 0 and treated with a single dose of the anti-human CD38 antibody, daratumumab (0.5 mg/kg IP, 14 days following Daudi cell inoculation) and two doses of mono(methoxyPEG-N-butanamide)interleukin-15 (0.3 mg/kg SC, one dose at each of 14 and 21 days after inoculation). Mice were also treated with the single agent therapies: daratumumab (0.5 mg/kg IP, 14 days following Daudi cell inoculation) or two doses of mono(methoxyPEG-N-butanamide)40 kD interleukin-15 (0.3 mg/kg SC, 14 and 21 days after inoculation).
# (One-way ANOVA, Tukey's multiple comparison test).
# human PBMCs = assay: Secreted granzyme B in PBMC culture media by ELISA (Example 6); format: cell-based; conditions: overnight, Conjugate 1 1 μg/ml, plate coated with hIgG 0.1 mg/ml
# Procedure: Functional activation of human NK cells within a human peripheral blood mononuclear cells (PBMCs) preparation was induced in vitro. PBMCs from two donors were incubated overnight in the presence of (i) mono(methoxyPEG-N-butanamide)40 kD interleukin-15 (Conjugate 1) at a concentration of 1 μg/ml; (ii) on cell culture plastic that had been prior coated overnight with human total immunoglobulin G (hIgG) solution at a concentration of 0.1 mg/ml (iii) on cell culture plastic that had been prior coated overnight with human total immunoglobulin G (hIgG) solution at a concentration of 0.1 mg/ml and in the presence of Conjugate 1 at a concentration of 1 μg/ml; or (iv) on regular cell culture plastic.
# After the incubation period, NK cell activation was measured with flow cytometry by measuring the increase of median fluorescence intensity (MFI) signal of CD69 (FIG. 9A) and CD107a (FIG. 9B) detecting antibodies on the surface of CD56+ human NK cells within the PBMCs. Functional activation of NK cells was assessed by calculating the fold-change in MFI when comparing control condition where the cells were exposed to neither hIgG nor Conjugate 1. […] Secreted granzyme B concentration also indicative of NK cell activation in the culture media at the end of the experiment was measured by ELISA (FIG. 9C).
# KHYG-1 cells = assay: KHYG-1 cell proliferation, CellTiter-Glo 2.0 (Example 7); format: cell-based, human; conditions: 48 hours
# Procedure: KHYG-1 cells were cultured in RPMI-1640 medium supplemented with 20% FBS, 2 mM L-glutamine, and 20 ng/mL IL-2 (Complete growth medium) in a humidified incubator at 37° C. and 5% CO2.
# One day prior to treatment with test compounds, cells were seeded at a density of 500,000 viable cells/ml in Complete growth medium and incubated overnight under normal growth conditions. On the day of the assay, KHYG-1 cells were washed 3 times with DPBS, resuspended in assay medium (RPMI-1640 medium supplemented with 20% FBS, 2 mM L-glutamine), and incubated for 4-5 hours at 37° C., 5% CO2. Cells were adjusted to the appropriate density (8×10^5 cells/mL) in assay medium and 50,000 cells/well were aliquoted into wells of a 96-well plate (View-Plate 96, Perkin-Elmer).
# Stimulation of KHYG-1 cells was initiated by the transfer of IL-15 or a long-acting IL-15 receptor agonist (mono(mPEG-butanamide)IL-15) to duplicate wells containing cells, followed by 48 hours incubation at 37° C., 5% CO2.
# Cell growth in each well was measured by monitoring ATP levels using CellTiter-Glo 2.0, following the manufacturer's instructions. The effect of the long-acting IL-15 receptor agonist on KHYG-1 cell proliferation was compared to IL-15 following 48-hour treatment using CellTiter-Glo 2.0 with the results shown in FIG. 10B.
# [2] = test system: HT-29 colorectal carcinoma cells; assay: Tumor growth inhibition and delay in HT-29 colorectal carcinoma model (Example 18); format: in vivo, mice; conditions: day 21 after treatment initiation; cetuximab 40 mg/kg IP x6; Compound 1 0.3 mg/kg IV x3
# Procedure: Tumor growth inhibition was evaluated on day 21 after treatment initiation.
# The tumor growth delay (TVQT) was evaluated with the endpoint set as 400% tumor growth from baseline.
substance,measurement,setting,value
mono(methoxyPEG-N-butanamide)40 kD interleukin-15 [Conjugate 1],"ADCC, % 7-AAD+ target cells",[1],enhance ADCC
same,granzyme B expression in bone marrow NK cells,Daudi B cell lymphoma; alone or in combination with daratumumab,increase granzyme B expression
same,increase in NK cell count in bone marrow,"Daudi B cell lymphoma; day 24, agonist 0.3 mg/kg SC days 14 and 21, daratumumab 0.5 mg/kg IP day 14",10 fold
same,Granzyme B concentration,human PBMCs,56 pg/mL
same,Granzyme B concentration fold-change relative to no stimulation control,human PBMCs,4.1 fold
same,maximal proliferative response,KHYG-1 cells,comparable to the response produced by IL-15
same,tumor growth inhibition,[2],no tumor growth inhibition
